Results on three compounds are retold here after patent US20070202163A1 (priority 2005, published 2007).

“Also recorded” adds a separate entry of the source. Counter-ions that a name gives are not always drawn. Like-named read-outs stand apart in the source and are kept apart here.

For series [1] the following is noted: cited from earlier work.
For series [2] the following is noted: 7.3 mg in 100 μl of a saturated solution of mannitol, monitored over 5 minutes.
The conditions of series [3]: rabbits; for Serum glucose level: relative to predose baseline; for Serum potassium levels: relative to predose levels. Here is the method:
(§1) Animals were evaluated for viability once-daily throughout the study. Cageside clinical observations were performed twice-daily from the initiation of dosing until the end of treatment. Body weights were obtained upon receipt, on Study Day 1 and weekly thereafter.

The conditions of series [4]: rabbit, in vivo, im, 0.3 mg.
Procedure: (§2) In a prospective, controlled, 5-way crossover study, five New Zealand white rabbits (mean weight 4.8±0.2 were investigated on five different days at least four weeks apart, using a protocol described previously (Gu et al., 1999). Each rabbit received EP 10 mg, EP 20 mg, and EP 40 mg as sublingual tablets, a placebo sublingual tablet (EP 0 mg) (as set forth in Table VI), and an EP 0.3 mg IM injection in the right thigh from EpiPen.
(§3) Using the same five New Zealand white rabbits (mean weight 4.8±0.2 Kg) as referred to supra, a prospective, controlled, 5-way crossover study was conducted, using a protocol described above (Gu et al., 1999), wherein each rabbit received an EP 40 mg sublingual tablet from each formulation set forth in Table XII and an EP 0.3 mg IM injection in the right thigh from EpiPen.
(§4) An indwelling catheter (OPTIVA 22G 1″, Johnson & Johnson) was inserted into an ear artery 30 min before dosing A 2 ml blood sample was obtained immediately before dosing and at 5, 10, 15, 20, 30, 40, 60, 90, 120, 150 and 180 minutes afterward.
(§5) Blood samples were refrigerated within 1 hour of sampling and centrifuged at 4° C. Plasma was frozen at −20° C. Before analysis, the plasma was thawed at room temperature and EP was extracted by a solid-liquid extraction process, with an efficiency of 70%-80%. […] The low range calibration curve was linear over the range of 0.1 to 1.0 ng/ml with a coefficient of variation of 0.8% at 0.1 ng and 1.4% at 1.0 ng. The high range calibration curve was linear over the range of 1.0 to 10.0 ng/ml with a coefficient of variation of 4.8% at 1.0 ng and 1.1% at 10.0 ng.
(§6) The AUC, Cmax, and Tmax values for each rabbit were compared using repeated measures ANOVA, Tukey-Kramer tests, and paired Students' t-test using NCSS Statistical Analysis Software (NCSS, Kaysville, Utah). Differences were considered to be significant at p<0.05.
A short description of series [5]: in vivo. To be noted: New Zealand white, rabbit, im, 0.3 mg.
Procedure: as §2, §3, §4, §5, §6
A short description of series [6]: in vivo. To be noted: for AUC(0-inf) / AUC(0-t) / Cmax / Tmax / half-life: both, NZW, rabbit, plasma. Here is the method: Sublingual tablets or IM doses were administered using a Randomized Crossover study design over 5-consecutive weeks.
as §1
Blood samples (approximately 1 mL/time point) were obtained from an indwelling arterial catheter placed approximately 30-minutes prior to initiation of sample collection. Samples were collected immediately prior to dosing (pre-dose baseline) and at approximately 5, 10, 15, 20, 30, 40, 60, 90, 120, and 180 minutes after dosing. At later time points, the samples were obtained by direct needle puncture or by removing the catheter and allowing blood to flow directly from the animal's ear artery into the blood collection tube.
Immediately after collection, the tube was inverted several times to disperse the anticoagulant and then placed on ice until centrifugation. The blood samples were centrifuged (˜2000×g for 10 minutes at 8° C.) within approximately 15-30 minutes of collection to separate the cellular and plasma fractions. The plasma fraction was harvested into screw-capped tubes and stored at approximately −70° C. (±10° C.) until analyzed. […] The remaining red blood cell fraction was discarded.
The method was validated based on the commercial method developed by ESA Biosciences, Inc. (Chelmsford, Mass.). All standards and reagents for the extraction and chromatography were purchased from ESA. Plasma samples, calibrators and quality control (QC) samples were extracted as follows: Each 0.50 mL aliquot of calibration curve standard, QC or unknown sample was mixed with 0.50 mL of working internal standard (I.S.) stock solution (dihydroxybenzylamine [DHBA], 10 ng/mL) in an ESA extraction tube containing alumina and buffer. The extraction tubes were capped and placed on a rocking shaker for 10 minutes. The tubes were placed on a vacuum manifold and the liquid was aspirated to waste. Each tube was then filled with wash solution which was aspirated to waste. Eluting solution (200 μL) was added to each tube. The tubes were capped and vortex-mixed for 10 minutes. The eluting solution was then forced from the tube under pressure into a microcentrifuge tube. The samples were centrifuged for 15 minutes, transferred to an autosampler vial and a 50 μl aliquot was injected into the HPLC.
A freshly prepared standard curve was analyzed along with samples on each day of analysis. […] Calibrator concentrations were 0.5, 1, 2, 4, 8, 12, 16 and 20 ng/mL as determined in the validation study. […] For the determination of unknown sample concentrations, two standard curve ranges were used; 0.5 to 20 ng/mL and 12 to […]. Values of unknown samples less than or equal to 20 ng/mL were reported from the lower range, and values greater than 20 ng/mL were reported from the higher range.
Elimination half-life (T½), maximum concentration (Cmax), time of maximum concentration (Tmax), area under the plasma concentration-time curve from time 0 through the final timepoint (AUC0-t), and area under the plasma concentration-time curve from time 0 extrapolated to infinity (AUC0-∞) were calculated for this study. The noncompartmental model for extravascular administration was used for all pharmacokinetic analyses. The calculation method was linear trapezoidal with linear/log interpolation. The elimination rate constant, lambda z (λz), was determined by WinNonlin using the best fit method.

[7] abbreviates: rabbits, 0.3 mg IM, mean ± SD, listed as epinephrine.
Where [8] appears, read: rabbits, 15 mg sublingual tablet, N = 1.
The mark [9] stands for this setting: rabbits, 15 mg sublingual tablet, mean ± SD.
Setting [10] is: rabbits, 30 mg sublingual tablet, mean ± SD.
[11] abbreviates: rabbits, 30 mg sublingual tablet, mean ± SD, listed as epinephrine.
[12] abbreviates: rabbits, 60 mg sublingual (2x30 mg tablets), mean ± SD.

In the case of `CNC[C@H](O)c1ccc(O)c(O)c1` [EPBT, (−)-3,4-dihydroxy-α-[(methylamino)methyl]benzyl alcohol (+)-tartrate (1:1) salt], the Water solubility in series [1] is reported as 1 gm in 3 ml water. The Dissolution of crystals entry in series [2] was “incomplete after 5 minutes; also recorded: slow and incomplete at the end of 5 minutes”.

The Cmax is the maximum level reached in the sampled fluid or tissue. The Tmax is the time from dosing to the highest level. A word on the AUC(0-inf): it is the area under the concentration-time curve extrapolated to infinity. A low value points to low exposure. Broadly, the AUC(0-t) is the area under the concentration-time curve up to a stated or last time point. Low readings indicate less exposure, high ones more exposure. Usually half-life stands for how long it takes for the measured level to halve. For `CNC[C@H](O)c1ccc(O)c(O)c1` [Epinephrine], the Serum glucose level result in series [3] (0.3 mg IM) and in series [3] (60 mg sublingual) was “increase in serum glucose level” in each case. Also, the Serum potassium levels entry in series [3] (30 mg sublingual) and in series [3] (60 mg sublingual) was “decreased” each time. The compound further returned an AUC in series [4] of 2431 ± 386 ng/mL/min. Further, the Cmax in series [5] is 50.3 ± 17.1 ng/mL; in series [6] (15 mg), 119 ± 131 ng/mL; in series [6] (30 mg), 142 ± 192 ng/mL; in series [6] (60 mg), 234 ± 182 ng/mL; in series [6] (im, 0.3 mg) it was 54.7 ± 28.3 ng/mL. Besides, the Tmax was 21 min in series [5]; 59.2 min in series [6] (15 mg); 36.7 min in series [6] (30 mg); 44.2 min in series [6] (60 mg); 24 min in series [6] (im, 0.3 mg). Also, the AUC(0-inf) was 196 ng·h/mL in series [6] (15 mg); 86.7 ng·h/mL in series [6] (30 mg); 300 ng·h/mL in series [6] (60 mg); 78.4 ng·h/mL in series [6] (im, 0.3 mg). In addition, the AUC(0-t) was 74.9 ng·h/mL in series [6] (15 mg); 82.3 ng·h/mL in series [6] (30 mg); 242 ng·h/mL in series [6] (60 mg); 54.3 ng·h/mL in series [6] (im, 0.3 mg). Also, the half-life in series [6] (15 mg) worked out at 181 ± 36.3 min; in series [6] (30 mg), 86.3 ± 60.5 min; in series [6] (60 mg), 141 ± 135 min; in series [6] (im, 0.3 mg), 91.3 ± 44.3 min. Further, the Cmax1 in series [6] (rabbits, 0.3 mg IM, mean ± SD) is 26.6 ± 9.4 ng/mL; in series [6] (setting [9]) it was 55.4 ± 87.6 ng/mL; in series [6] (setting [10]), 147.5 ± 215.7 ng/mL; in series [6] (setting [12]), 154.0 ± 125.4 ng/mL. In addition, the Cmax2 was found to be 42.7 ± 18.1 ng/mL in series [6] (rabbits, 0.3 mg IM, mean ± SD); 42.7 ± 18.1 ng/mL in series [6] (setting [7]); 30.4 ± 25.7 ng/mL in series [6] (setting [9]); 82.2 ± 102.1 ng/mL in series [6] (setting [10]); 82.2 ± 102.1 ng/mL in series [6] (setting [11]); 85.4 ± 35.3 ng/mL in series [6] (setting [12]). In addition, the Tmax1 in series [6] (rabbits, 0.3 mg IM, mean ± SD) came out at 9.0 ± 2.2 min; in series [6] (setting [7]), 9.0 ± 2.2 min; in series [6] (setting [9]), 9.2 ± 2.0 min; in series [6] (setting [10]), 8.3 ± 4.1 min; in series [6] (setting [11]), 8.4 ± 4.1 min; in series [6] (setting [12]), 14.2 ± 8.6 min. Also, in series [6] (rabbits, 60 mg sublingual (2x30 mg tablets), mean ± SD, listed as epinephrine), the Tmax1 amounted to 14.2 ± 8.6 min. Also, the Cmax4 in series [6] (setting [8]) is on record as 55.10 ng/mL. The Tmax4 in series [6] (setting [8]) was 180.0 min. Further, the figures for the Cmax3 in series [6] (setting [9]), in series [6] (setting [10]) and in series [6] (setting [12]) were 85.2 ± 127.8 ng/mL, 45.5 ± 44.3 ng/mL and 127.8 ± 83.8 ng/mL, respectively. In addition, the Tmax3 in series [6] (setting [9]) turned out to be 111.7 ± 59.5 min.

As for `OC[C@@H](O)[C@@H](O)[C@H](O)[C@H](O)CO` [Mannitol], in series [1], the Water solubility is 1 gm in 5.5 ml water.
